Results: US9469650B2, “Melampomagnolide B derivatives” (BOARD OF TRUSTEES OF THE UNIVERSITY OF ARKANSAS, priority 2013, dated 2016)

Legend:
LOX IMVI = assay: panel of 60 human tumor cell lines, growth inhibition (Melanoma); details: Homo sapiens; for CC50: read-out: LC50; for IC (TGI): read-out: TGI
SK-MEL-2 = assay: as above; details: Homo sapiens; for GI50: SK-MEL-2; for CC50: SK-MEL-2, read-out: LC50; for IC (TGI): SK-MEL-2, read-out: TGI
SK-MEL-28 = assay: as above; details: Homo sapiens; for GI50: SK-MEL-28; for CC50: SK-MEL-28, read-out: LC50; for IC (TGI): SK-MEL-28, read-out: TGI
SK-MEL-5 = assay: as above; details: Homo sapiens; for GI50: SK-MEL-5; for CC50: SK-MEL-5, read-out: LC50; for IC (TGI): SK-MEL-5, read-out: TGI
UACC-257 = assay: as above
SF-295 = assay: panel of 60 human tumor cell lines, growth inhibition (CNS Cancer); details: Homo sapiens; for GI50: SF-295; for CC50: SF-295, read-out: LC50; for IC (TGI): SF-295, read-out: TGI
U251 = assay: as above; details: Homo sapiens; for GI50: U-251; for CC50: U-251, read-out: LC50; for IC (TGI): U-251, read-out: TGI
RXF 393 = assay: panel of 60 human tumor cell lines, growth inhibition (Renal Cancer); details: Homo sapiens; for CC50: RXF 393, read-out: LC50; for IC (TGI): RXF 393, read-out: TGI
BT-549 = assay: panel of 60 human tumor cell lines, growth inhibition (Breast Cancer); details: Homo sapiens; for GI50: BT-549; for CC50: BT-549, read-out: LC50; for IC (TGI): BT-549, read-out: TGI
OVCAR-5 = assay: panel of 60 human tumor cell lines, growth inhibition (Ovarian Cancer); details: for GI50 / CC50 / IC (TGI): Homo sapiens; for CC50: OVCAR-5, read-out: LC50; for IC (TGI): OVCAR-5, read-out: TGI
OVCAR-8 = assay: as above; details: Homo sapiens; for GI50: OVCAR-8; for CC50: OVCAR-8, read-out: LC50; for IC (TGI): OVCAR-8, read-out: TGI
SK-OV-3 = assay: as above; details: Homo sapiens; for GI50: SK-OV-3; for CC50: SK-OV-3, read-out: LC50; for IC (TGI): SK-OV-3, read-out: TGI
DU-145 = assay: panel of 60 human tumor cell lines, growth inhibition (Prostate Cancer); details: Homo sapiens; for GI50: DU-145; for CC50: DU-145, read-out: LC50; for IC (TGI): DU-145, read-out: TGI
A549/ATCC = assay: panel of 60 human tumor cell lines, growth inhibition (Non-Small Cell Lung Cancer); details: Homo sapiens; for GI50: A549; for CC50: A549, read-out: LC50; for IC (TGI): A549, read-out: TGI
HOP-62 = assay: as above; details: Homo sapiens; for GI50: HOP-62; for CC50: HOP-62, read-out: LC50; for IC (TGI): HOP-62, read-out: TGI
NCI-H322M = assay: as above; details: Homo sapiens; for CC50: read-out: LC50; for IC (TGI): read-out: TGI
K-562 = assay: panel of 60 human tumor cell lines, growth inhibition (Leukemia); details: for Percent Growth: K-562
OVCAR-3 = assay: panel of 60 human tumor cell lines, growth inhibition (Ovarian Cancer)

Compound: C=C1C(=O)O[C@H]2[C@H]1CC/C(COC(=O)Nc1n[nH]c(SC)n1)=C\CC[C@@]1(C)O[C@@H]21 [JVM 64, ((1aR,7aS,10aS,10bS,E)-1a-methyl-8-methylene-9-oxo-1a,2,3,6,7,7a,8,9,10a,10b-decahydrooxireno[2′,3′:9,10]cyclodeca[1,2-b]furan-5-yl)methyl-(5-(methylthio)-1H-1,2,4-triazol-3-yl)carbamate]
- GI50 (LOX IMVI; 5-dose assay): 1.95 µM
- GI50 (LOX IMVI; NCI five dose): 1.95 µM
- CC50 (LOX IMVI): 19.8 µM
- IC (TGI) (LOX IMVI): 5.03 µM
- GI50 (SK-MEL-2): 3.56 µM
- CC50 (SK-MEL-2): 62.2 µM
- IC (TGI) (SK-MEL-2): 13.1 µM
- GI50 (SK-MEL-28): 1.85 µM
- CC50 (SK-MEL-28): 17.9 µM
- IC (TGI) (SK-MEL-28): 4.86 µM
- GI50 (SK-MEL-5): 3.13 µM
- CC50 (SK-MEL-5): 37.5 µM
- IC (TGI) (SK-MEL-5): 12.4 µM
- GI50 (UACC-257; Homo sapiens, UACC-257): 1.66 µM
- CC50 (UACC-257; Homo sapiens, UACC-257, read-out: LC50): 31.9 µM
- Percent Growth (UACC-257; UACC-257, Log10 Concentration −4.0): −80%
- Percent Growth (UACC-257; UACC-257, Log10 Concentration −5.0): −20%
- Percent Growth (UACC-257; UACC-257, Log10 Concentration −6.0): 70%
- Percent Growth (UACC-257; UACC-257, Log10 Concentration −7.0): 93%
- Percent Growth (UACC-257; UACC-257, Log10 Concentration −8.0): 102%
- TGI (UACC-257; UACC-257, NCI five dose): 6.02E−6
- GI50 (SF-295): 14.1 µM
- CC50 (SF-295): 64.1 µM
- IC (TGI) (SF-295): 30.1 µM
- GI50 (U251): 3.62 µM
- CC50 (U251): 51 µM
- IC (TGI) (U251): 15.8 µM
- GI50 (RXF 393; RXF 393, RXF 393, 5-dose assay): 0.9 µM
- GI50 (RXF 393; RXF 393, RXF 393, NCI five dose): 0.906 µM
- CC50 (RXF 393): 6.02 µM
- IC (TGI) (RXF 393): 2.41 µM
- GI50 (RXF 393; RXF 393, renal cancer cell line RXF 393): 0.9 µM
- GI50 (BT-549): 1.47 µM
- CC50 (BT-549): 6.24 µM
- IC (TGI) (BT-549): 3.83 µM
- GI50 (OVCAR-5; OVCAR-5): 2.18 µM
- CC50 (OVCAR-5): 24 µM
- IC (TGI) (OVCAR-5): 5.92 µM
- GI50 (OVCAR-8): 2.71 µM
- CC50 (OVCAR-8): 51.6 µM
- IC (TGI) (OVCAR-8): 12.1 µM
- GI50 (SK-OV-3): 11.7 µM
- CC50 (SK-OV-3): > 100 µM
- IC (TGI) (SK-OV-3): 35.8 µM
- GI50 (DU-145): 3.49 µM
- CC50 (DU-145): 38.4 µM
- IC (TGI) (DU-145): 13.1 µM
- GI50 (A549/ATCC): 4.19 µM
- CC50 (A549/ATCC): 83.5 µM
- IC (TGI) (A549/ATCC): 19.9 µM
- GI50 (HOP-62): 6.45 µM
- CC50 (HOP-62): 64.9 µM
- IC (TGI) (HOP-62): 22.3 µM
- GI50 (NCI-H322M): 14.2 µM
- CC50 (NCI-H322M): 60.3 µM
- IC (TGI) (NCI-H322M): 29.2 µM

Compound: C=C1C(=O)O[C@H]2[C@H]1CC/C(COC(=O)NCCN1CCCC1)=C\CC[C@@]1(C)O[C@@H]21 [JVM 59, ((1aR,7aS,10aS,10bS,E)-1a-methyl-8-methylene-9-oxo-1a,2,3,6,7,7a,8,9,10a,10b-decahydrooxireno[2′,3′:9,10]cyclodeca[1,2-b]furan-5-yl)methyl-(2-(pyrrolidin-1-yl)ethyl)carbamate]
- GI50 (K-562; Homo sapiens, K562): 3.26 µM
- CC50 (K-562; Homo sapiens, K562, read-out: LC50): > 100 µM
- TGI (K-562; K-562, five dose): 1.86E−5
- Percent Growth (K-562; Log10 Concentration −4.0): −36%
- Percent Growth (K-562; Log10 Concentration −5.0): 13%
- Percent Growth (K-562; Log10 Concentration −6.0): 89%
- Percent Growth (K-562; Log10 Concentration −7.0): 79%
- Percent Growth (K-562; Log10 Concentration −8.0): 87%
- GI50 (LOX IMVI; 5-dose assay): 7.88 µM
- GI50 (LOX IMVI; five dose): 7.88 µM
- CC50 (LOX IMVI): 60.6 µM
- IC (TGI) (LOX IMVI): 23.4 µM
- GI50 (SK-MEL-2): 14 µM
- CC50 (SK-MEL-2): 62.4 µM
- IC (TGI) (SK-MEL-2): 29.5 µM
- GI50 (SK-MEL-28): 12.3 µM
- CC50 (SK-MEL-28): 52 µM
- IC (TGI) (SK-MEL-28): 25.3 µM
- GI50 (SK-MEL-5): 15.5 µM
- CC50 (SK-MEL-5): 55.1 µM
- IC (TGI) (SK-MEL-5): 29.2 µM
- GI50 (SF-295): 48.8 µM
- CC50 (SF-295): > 100 µM
- IC (TGI) (SF-295): > 100 µM
- GI50 (U251): 26.7 µM
- CC50 (U251): > 100 µM
- IC (TGI) (U251): 93.1 µM
- GI50 (RXF 393; RXF 393, RXF 393, five dose): 4.08 µM
- GI50 (RXF 393; RXF 393, RXF 393, 5-dose assay): 4.08 µM
- CC50 (RXF 393): 47.9 µM
- IC (TGI) (RXF 393): 16.8 µM
- GI50 (BT-549): 4.75 µM
- CC50 (BT-549): 45 µM
- IC (TGI) (BT-549): 18.6 µM
- GI50 (OVCAR-3; Homo sapiens, OVCAR-3): 8.41 µM
- CC50 (OVCAR-3; Homo sapiens, OVCAR-3, read-out: LC50): 46.4 µM
- IC (TGI) (OVCAR-3; Homo sapiens, OVCAR-3, read-out: TGI): 20.8 µM
- Percent Growth (OVCAR-3; OVCAR-3, Log10 Concentration −4.0): −98%
- Percent Growth (OVCAR-3; OVCAR-3, Log10 Concentration −5.0): 46%
- Percent Growth (OVCAR-3; OVCAR-3, Log10 Concentration −6.0): 102%
- Percent Growth (OVCAR-3; OVCAR-3, Log10 Concentration −7.0): 100%
- Percent Growth (OVCAR-3; OVCAR-3, Log10 Concentration −8.0): 101%
- GI50 (OVCAR-5; OVCAR-5): 13.5 µM
- CC50 (OVCAR-5): 59.3 µM
- IC (TGI) (OVCAR-5): 28.3 µM
- Percent Growth (OVCAR-5; OVCAR-5, Log10 Concentration −7.0): 9B
- GI50 (OVCAR-8): 13.4 µM
- CC50 (OVCAR-8): 72.2 µM
- IC (TGI) (OVCAR-8): 31.1 µM
- GI50 (SK-OV-3): 29.4 µM
- CC50 (SK-OV-3): > 100 µM
- IC (TGI) (SK-OV-3): > 100 µM
- GI50 (DU-145): 7.42 µM
- CC50 (DU-145): 46.3 µM
- IC (TGI) (DU-145): 20.2 µM
- GI50 (A549/ATCC): 27.6 µM
- CC50 (A549/ATCC): > 100 µM
- IC (TGI) (A549/ATCC): 96.5 µM
- GI50 (HOP-62): 18 µM
- CC50 (HOP-62): 62.3 µM
- IC (TGI) (HOP-62): 33.5 µM
- GI50 (NCI-H322M): 73.9 µM
- CC50 (NCI-H322M): > 100 µM
- IC (TGI) (NCI-H322M): > 100 µM
